Test results as given in patent publication US7320890B2, “Soluble steroidal peptides for nucleic acid delivery” (University of Utah Research Foundation, priority 2001, dated 2008).
Where a SMILES comes first, the peptide text is derived from it. Where no end group is shown, it is not given here. The star is where a group is joined. Lithocholoyl = C[C@H](CCC(=O)*)[C@H]1CC[C@H]2[C@@H]3CC[C@@H]4C[C@H](O)CC[C@]4(C)[C@H]3CC[C@]12C

How the values were obtained:
[1] = system: CT-26 colon carcinoma cell lines; experiment: In vitro transfection, luciferase activity; format: cell-based; settings: CT-26 cells, controls without carrier conjugate or without plasmid
Method: SSP/pLuc and SSP/p2CMVmIL-12 complexes formulated at various N/P ratios in 5% (w/v) glucose were evaluated for their transfection efficiency in CT-26 colon carcinoma cell lines. In the case of luciferase gene controls, cells were lysed after transfection and the relative light units (RLU) and total protein concentration were determined. […] The transfection efficiency increased with the increase in N/P ratios but diminished slightly with ratios 50/1 and above which could possibly be due to cytotoxicity towards CT-26 cells. On visual inspection under light microscope some granulation of cells was found, and cytotoxicity tests indicate that above N/P ratios 50/1 the cell viability is reduced by about 80%, which would account for lower gene expression.
In case of pLuc, CT-26 cells were seeded in 12-well tissue culture plates at 1×10^5 cells per/well in 10% FBS containing RPMI 1640 media. Cells achieved 70% confluency within 24 hours, after which they were transfected with SSP/pDNA complexes prepared at different N/P ratios ranging from 5/1 to 50/1 as described above. […] Luciferase activity was measured in terms of relative light units (RLU) using 96 well plate Luminometer (Dynex Technologies Inc, Chantilly, Va.). The luciferase activity was monitored and integrated over a period of 30 secs. […]

CT-26 cells = experiment: Membrane permeabilization study (ethidium bromide staining, flow cytometry); format: cell-based; settings: for levels of staining: pH 7.4; for cells stained (ethidium bromide fluorescence): 10 μM SSP
Method: Membrane permeabilization studies were performed to find out whether SSP was able to form pores through plasma membranes and whether this phenomenon had any pH dependence or not. SSP prepared according to Example 1 was used at micromolar concentrations on cells preincubated with ethidium bromide, which intercalates between the strands of dsDNA and causes it to fluoresce. Ethidium bromide on its own is a poor membrane permeant, however, if the membranes are permeabilized, it would rapidly cross the cytoplasm, accumulate in the nucleus, and bind to the cellular DNA. Its fluorescent property would allow us to thus find the extent to which permeabilization via SSP occurred.
The membrane permeabilization activity of SSP was determined using flow cytometry. CT-26 cells were grown overnight and at 70-80% confluency were trypsinized and centrifuged. Cells were washed several times in 1×PBS (pH 7.4) and eventually resuspended in it to make cell suspensions of 1×10^6 cells/ml. One microliter of ethidium bromide (10 mg/ml) was mixed in 0.5 ml of cell suspension aliquots and stored at 4° C. 15 minutes before use. The pH of cell suspensions was adjusted to values 5,6,7, or 8 using either 1N NaOH or 1N HCl solutions 5 minutes before starting the experiment. SSP was finally used to permeabilize the membranes at the same final concentration for pH studies or at different concentrations at pH 7.4. Temperature effects at 4° C. and 37° C. were also studied to find any temperature dependent differences in permeabilization. After 5 and 15 minutes incubation, the cell fluorescence intensity was measured using FACScan Analyzer (Becton Dickinson, Sunnyvale, Calif.), which has a single 15-mW argon (488 nm) laser light source. A 585 nm long pass filter was used to collect the emitted red fluorescence. The forward scatter, side scatter, and ethidium bromide fluorescence were simultaneously recorded with 10,000 cells at 300 events per second. The results were later analyzed using cell quest software provided by the same manufacturer. Histogram statistics were used to quantitatively determine the extent of permeabilization.

plasmid DNA = experiment: Condensation of plasmid DNA (gel electrophoresis); format: physicochemical; settings: 4.5% (w/v) glucose, phosphate buffer pH 8.0
Method: Various formulations of SSP/p2CMVmIL-12 were prepared as follows: 100 μL aliquots of SSP at various concentrations and pDNA (0.2 mg/ml) were prepared in 4.5% (w/v) glucose to bring the osmolality to 285-295 mOsm, and 1M phosphate buffer was used to bring the pH to 8.0 of both aliquots. SSP/pDNA complexes at various N/P ratios ranging from 0.5/1 (N/P) to 50/1 (N/P) were prepared by rapidly mixing contents of SSP aliquot in pDNA aliquots using a pipettor. N/P ratio was calculated by taking into account 3 nitrogens for each arginine in SSP, thereby resulting in 18 nitrogens for each SSP molecule. The SSP/pDNA complexes were incubated for 15 minutes at room temperature before electrophoresis.

[2] = mouse, CT-26 colon adeno-carcinoma cells
Method: (§1) Cytotoxicity of SSP/p2CMVmIL-12 complexes prepared at different N/P ratios were assessed using an MTT assay. CT-26 colon adeno-carcinoma cells were grown and maintained in RPMI 1640 medium (GIBCO-BRL, Gaithersburg, Md.), which was supplemented with 10% fetal bovine serum (FBS), 100 U/ml penicillin, 100 U/ml streptomycin and 50 μg/ml gentamycin (all from Gibco-BRL, Gaithersburg, Md.) at 37° C. and humidified 5% CO2.
(§2) Briefly, CT-26 cell lines were seeded in 96 well plates at 4000 cells/well and incubated for 24 hours. After checking the cell confluency, which was over 80%, SSP/p2CMVmIL-12 complexes prepared at N/P ratios ranging from 5/1 to 100/1 were added to the cells at a dose of 0.15 μg pmIL-12/well. Following 48 hrs of incubation, 25 μl of 5 mg/ml 3-[4,5-dimethylthiazol-2-yl]-2,5-diphenyltetrazolium bromide (MTT, Sigma Chemical Co., St. Louis, Mo.) stock solution in phosphate buffered saline (PBS, Gibco-BRL) was poured into each well reaching a final concentration of 0.5 mg/ml MTT. The plate was then incubated at 37° C. in 5% CO2 for 4 hrs. The medium was removed and 150 μl of dimethyl sulfoxide (DMSO, Aldrich) was added to dissolve the formazan crystals. The plate was read spectrophotometrically at 570 nm in an ELISA plate reader. The relative cell viability was calculated as [Abs]sample/[Abs]control×100. […]

[3] = system: CT-26 colon adeno-carcinoma cells; experiment: Cytotoxicity MTT assay; settings: SSP alone, amounts equivalent to those used in N/P ratios 20/1
Method: as §1, §2

Compound	transfection / gene expression (in words) [1]	levels of staining (CT-26 cells; 5 μM of SSP or above) [%]	levels of staining (CT-26 cells; 10 μM SSP and above) [%]	cells stained (ethidium bromide fluorescence) (CT-26 cells; pH 5 and 6, within 5 minutes)	cells stained (ethidium bromide fluorescence) (CT-26 cells; pH 5 and 6, within 5 minutes, listed as soluble steroidal peptide)	cells stained (ethidium bromide fluorescence) (CT-26 cells; pHs above the pKa of the imidazole ring of histidine (pKa=6.1), pH 7 and 8) [%]	N/P ratio at which pDNA is condensed completely (plasmid DNA)	viability at 48 h [2] [%]	cytotoxicity (in words) [3]
HHYRRRHKSRRRLHH [Peptide sequence, reference compound]	not effective								
CC(C)C[C@H](NC(=O)[C@H](CCCNC(=N)N)NC(=O)[C@H](CCCNC(=N)N)NC(=O)[C@H](CCCNC(=N)N)NC(=O)[C@H](CO)NC(=O)[C@H](CCCCNC(=O)CC[C@@H](C)[C@H]1CC[C@H]2[C@@H]3CC[C@@H]4C[C@H](O)CC[C@]4(C)[C@H]3CC[C@]12C)NC(=O)[C@H](Cc1c[nH]cn1)NC(=O)[C@H](CCCNC(=N)N)NC(=O)[C@H](CCCNC(=N)N)NC(=O)[C@H](CCCNC(=N)N)NC(=O)[C@H](Cc1ccc(O)cc1)NC(=O)[C@H](Cc1c[nH]cn1)NC(=O)[C@@H](N)Cc1c[nH]cn1)C(=O)N[C@@H](Cc1c[nH]cn1)C(=O)N[C@@H](Cc1c[nH]cn1)C(N)=O [SSP] (H-HHYRRRHK(Lithocholoyl)SRRRLHH-NH2; N-terminus and C-terminus assumed)	did not give any gene expression	> 85	~100	over 97%	less than 25%	< 25	3/1	~75	non-toxic
